Laboratory results from US10774049B2, “PU.1 inhibitors” (Albert Einstein College of Medicine, priority 2016, dated 2020).
pIC50: −log10 of the molar value. Where a name gives a salt, the structure may show the parent alone. Read-outs that look alike come from different tables or passages of the source.

How the values were obtained:
[1] = test system: PU.1 occupancy on E2f1, Junb and Csf1r promoters; test: Chromatin immunoprecipitation of PU.1 on target promoters in AML cells; assay type: cell-based; conditions: ChIP
Protocol: FIG. 3A-3G. Novel inhibitors show on-target PU.1 inhibitory activity. (A) Quantitative RT-PCR analysis of Csf1r, Junb, Sfpi1, E2f1 expression after 72 h (n=6) and, for Csf1r, after 1 h (n=3), 4 h (n=7), 8 h (n=3) and 24 h (n=3) of treatment with the small molecules in URE−/− cells, expression is normalized to GAPDH expression. Data represent means±SD of technical triplicate from one representative experiment; fold change compared to Vehicle is shown. (B) Chromatin immunoprecipitation assay showing PU.1 occupancy on E2f1, Junb, Csf1r promoters after treatment in Umsh cell line (n=5). 10·10^6 cells were collected for each condition after 8 h treatment with a double dose of the small molecules (50 uM for DB1976, 1.4 uM for DB2115 and 660 nM for DB2313) or Vehicle; and processed for ChIP using PU.1 monoclonal antibody. Myogenin was used as a negative control, not regulated by PU.1. Data represent means±SD of technical triplicate from one representative experiment. (C) Cell viability after PU.1 rescue in MOLM13 cells. MOLM13 were transduced with a lentiviral construct expressing either PU.1-GFP (PU.1, black bar) or GFP as a control (empty, white bar), sorted on GFP and plated with DB1976 (n=7), DB2115 (n=8), DB2313 (n=6) or Vehicle. Cell count was performed after 4 days. Data represent means±SD of technical triplicate from one representative experiment; fold change compared to Vehicle is shown. (D-G) Transcriptome analysis of URE−/− cells after 24 h of treatment with DB2313 versus vehicle (n=3). Differentially expressed genes were determined with a fold change at 1.2 and a P value <0.1. […] Deregulated gens in PUER cells were analyzed with a FC at 1.5 and P-value <0.05. […] P-value was calculated using the hypergeometric test. […]
To assess on-target activity of our inhibitors in AML cells, we measured transcript levels of well-known PU.1 targets in PU.1 URE^−/− AML cells. […] As Csf1r is one of the most sensitive PU.1 targets in myeloid cells, we assessed its expression at different time points (1 h, 4 h, 8 h and 24 h) after drug treatment. […]

[2] = test system: PU.1 URE−/− AML cell line; test: Cell viability/growth of PU.1 URE−/− AML cells; assay type: cell-based, murine; conditions: Mus musculus
Protocol: (§1) FIG. 2A-2F. PU.1 inhibition decreases cell growth and increases apoptosis of PU.1^1″ leukemic cells. (A) Chemical structures of heterocyclic diamidines DB1976, DB2115 and DB2313 used in this study. (B) Relative cell viability of URE−/− cells and BAF3 cells after treatment with increasing concentrations of vehicle or small molecules. Cell viability was assessed after 48 h. Data represent means of technical triplicate from one representative experiment; fold change compared to Vehicle is shown. (C) Cell proliferation assay of URE−/− after treatment with DB1976 (n=5), DB2115 (n=3), DB2313 (n=3), of MOLM13 cells (n=3), and THP1 cells (n=3). Cell counting was performed every 24 h during 4 days. Data represent means±SD of technical triplicate from one representative experiment. Forward strand: SEQ ID NO:3, and Reverse strand: SEQ ID NO:4; derived from the λB motif from the murine Ig lambda 2-4 enhancer, a known native PU.1-dependent gene and specific binding site for PU.1. (D) Clonogenic capacities of URE−/− cells after treatment with DB1976 (n=5), DB2115 (n=3) and DB2313 (n=4) in the first plating, and after serial replatings (n=3). Data represent means±SD of technical triplicate from one representative experiment. (E) Apoptotic cells (Annexin-V+Dapi−) fraction in URE−/− cells after 48 h of treatment with DB1976 (n=6), DB2115 (n=6) and DB2313 (n=3). Data represent the means±SD of independent experiments; fold change compared to Vehicle is shown. *P<0.05, **P<0.01, ***P<0.001, ****P<0.0001 (F) Dose dependent inhibitor of PU.1-dependent transactivation.
To determine if our PU.1 inhibitors have an effect on PU.1^low-induced AML cells, we treated the PU.1 URE^−/− AML cell line with compounds at different concentrations. Treatment with the drugs led to a profound decrease in growth of PU.1 URE^−/− AML cells after 48 h whereas it had only minimal or no effects on control cells with normal PU.1 levels (BaF3), even at very high doses (FIG. 3A). […] Similar to our observations with PU.1-directed shRNAs, treatment with pharmacological PU.1 inhibitors led to a significant 1.6-, 2- and 3.5-fold increase of apoptotic cells with DB1976, DB2115 and DB2313, respectively, in murine PU.1 URE^−/− AML cells (FIG. 3C), and similar effects in human MOLM13 cells.

PU.1 URE−/− AML cells = test: Apoptosis (Annexin-V+Dapi−) in PU.1 URE−/− AML cells; assay type: cell-based; conditions: murine PU.1 URE−/− AML cells, 48 h, vs vehicle
Protocol: as §1
To determine if our PU.1 inhibitors have an effect on PU.1^low-induced AML cells, we treated the PU.1 URE^−/− AML cell line with compounds at different concentrations. Treatment with the drugs led to a profound decrease in growth of PU.1 URE^−/− AML cells after 48 h whereas it had only minimal or no effects on control cells with normal PU.1 levels (BaF3), even at very high doses (FIG. 3A). […]

[3] = after 48 h, read-out: IC50 in PU.1 URE−/− AML

N=C(N)c1ccc2nc(-c3ccc(-c4nc5ccc(C(=N)N)cc5[nH]4)[se]3)[nH]c2c1 [DB1976]
PU.1 occupancy on E2f1, Junb and Csf1r promoters [1]: decreased | pIC50 [2, 3]: 4.60 | fold increase of apoptotic cells (PU.1 URE−/− AML cells): 1.6 fold

N=C(N)c1ccc2nc(-c3ccc(OCCCCOc4ccc(-c5nc6ccc(C(=N)N)cc6[nH]5)cc4)cc3)[nH]c2c1 [DB2115]
PU.1 occupancy on E2f1, Junb and Csf1r promoters [1]: decreased | pIC50 [2, 3]: 6.15 | fold increase of apoptotic cells (PU.1 URE−/− AML cells): 2 fold

CC(C)NC(=N)c1ccc2nc(-c3ccc(OCc4cccc(COc5ccc(-c6nc7ccc(C(=N)NC(C)C)cc7[nH]6)cc5)c4F)cc3)[nH]c2c1 [DB2313, 3-Bis{4[4(5)-N-isopropylamidinobenzimidazolyl]phenoxymethyl]}-2-fluorobenzene tetrahydrochloride]
PU.1 occupancy on E2f1, Junb and Csf1r promoters [1]: decreased | pIC50 [2, 3]: 6.48 | pIC50 ([2]; read-out: IC50 URE−/−): 6.48 | fold increase of apoptotic cells (PU.1 URE−/− AML cells): 3.5 fold
